Where “and” joins values, the source holds several entries; their conditions need not be identical. Equal values may be shown once.
Legend:
[1] = Molar enthalpy of transition or fusion
[2] = molar heat capacity at saturation pressure
[3] = for vapor or sublimation pressure: Inclined piston gauge

CC(C)(C)c1ccccc1 [(1,1-dimethylethyl)benzene]
Conditions	Molar enthalpy of transition or fusion [kcal/mol]
[1], Crystal	2.0062

Conditions	Triple point temperature [K]	molar heat capacity [J/K/mol]
[2], 5 K, Crystal	–	0.72
[2], 5.009 K, Crystal	–	0.72
[2], 5.752 K, Crystal	–	1.09
[2], 6.678 K, Crystal	–	1.68
[2], 7.653 K, Crystal	–	2.44
[2], 8.667 K, Crystal	–	3.35
[2], 9.709 K, Crystal	–	4.46
[2], 10 K, Crystal	–	4.79
[2], 10.84 K, Crystal	–	5.76
[2], 12.09 K, Crystal	–	7.28
[2], 13.47 K, Crystal	–	9.104
[2], 14.96 K, Crystal	–	11.15
[2], 16.6 K, Crystal	–	13.48
[2], 18.41 K, Crystal	–	16.04
[2], 20 K, Crystal	–	18.27
[2], 20.41 K, Crystal	–	18.84
[2], 22.63 K, Crystal	–	21.93
[2], 25.1 K, Crystal	–	25.19
[2], 27.86 K, Crystal	–	28.67
[2], 30 K, Crystal	–	31.19
[2], 30.93 K, Crystal	–	32.24
[2], 34.35 K, Crystal	–	35.9
[2], 38.17 K, Crystal	–	39.64
[2], 40 K, Crystal	–	41.3
[2], 42.44 K, Crystal	–	43.41
[2], 47.2 K, Crystal	–	47.28
[2], 50 K, Crystal	–	49.43
[2], 52.43 K, Crystal	–	51.23
[2], 53.45 K, Crystal	–	51.95
[2], 58.21 K, Crystal	–	55.36
[2], 58.43 K, Crystal	–	55.52
[2], 60 K, Crystal	–	56.6
[2], 64.04 K, Crystal	–	59.39
[2], 70 K, Crystal	–	63.57
[2], 70.32 K, Crystal	–	63.81
[2], 77.32 K, Crystal	–	68.59
[2], 80 K, Crystal	–	70.45
[2], 84.98 K, Crystal	–	73.93
[2], 87.08 K, Crystal	–	75.43
[2], 90 K, Crystal	–	77.44
[2], 93.34 K, Crystal	–	79.79
[2], 93.37 K, Crystal	–	79.85
[2], 100 K, Crystal	–	84.51
[2], 101.27 K, Crystal	–	85.43
[2], 102.4 K, Crystal	–	86.21
[2], 110.41 K, Crystal	–	91.89
[2], 111.86 K, Crystal	–	92.92
[2], 120 K, Crystal	–	98.68
[2], 120.01 K, Crystal	–	98.72
[2], 129.8 K, Crystal	–	105.69
[2], 139.62 K, Crystal	–	112.79
[2], 140 K, Crystal	–	113.02
[2], 149.52 K, Crystal	–	119.99
[2], 160 K, Crystal	–	127.65
[2], 160.53 K, Crystal	–	128.13
[2], 162.39 K, Crystal	–	129.37
[2], 172.82 K, Crystal	–	137.16
[2], 173.48 K, Crystal	–	137.69
[2], 180 K, Crystal	–	142.42
[2], 185.83 K, Crystal	–	147.07
[2], 186.21 K, Crystal	–	147.43
[2], 197.14 K, Crystal	–	156.12
[2], 200 K, Crystal	–	157.51
[2], 203.2 K, Crystal	–	162.61
[2], 206.78 K, Crystal	–	167.05
[2], 215.31 K, Crystal	–	169.1
[2], 215.31 K, Liquid	–	208.01
[2], 220 K, Liquid	–	209.58
[2], 223.09 K, Liquid	–	210.65
[2], 223.25 K, Liquid	–	210.68
[2], 232.46 K, Liquid	–	213.79
[2], 232.58 K, Liquid	–	213.79
[2], 240 K, Liquid	–	216.6
[2], 240.86 K, Liquid	–	216.97
[2], 253.04 K, Liquid	–	221.76
[2], 260 K, Liquid	–	224.65
[2], 265.37 K, Liquid	–	226.92
[2], 277.79 K, Liquid	–	232.27
[2], 280 K, Liquid	–	233.26
[2], 291.32 K, Liquid	–	238.42
[2], 294.64 K, Liquid	–	239.95
[2], 298.15 K, Liquid	–	241.59
[2], 300 K, Liquid	–	242.45
[2], 305.81 K, Liquid	–	245.17
[2], 311.47 K, Liquid	–	247.82
[2], 320 K, Liquid	–	251.92
[2], 329.17 K, Liquid	–	256.4
[2], 330 K, Liquid	–	256.8
[2], 340 K, Liquid	–	261.71
[2], 347.61 K, Liquid	–	265.47
[2], 360 K, Liquid	–	271.66
[2], 365.98 K, Liquid	–	274.65
[2], 380 K, Liquid	–	281.68
[2], 384.21 K, Liquid	–	283.78
[2], 400 K, Liquid	–	291.7
[2], 402.17 K, Liquid	–	292.78
[2], 419.78 K, Liquid	–	301.62
[2], 420 K, Liquid	–	301.72
[2], 435.18 K, Liquid	–	309.12
[2], 440 K, Liquid	–	311.52
[3], Crystal, Adiabatic calorimetry	215.31	–

CC(C)(C)c1ccc(C(C)(C)C)cc1 [1,4-bis(1,1-dimethylethyl)benzene]
Conditions	Molar enthalpy of transition or fusion, [1] [kcal/mol]	Triple point temperature, [3] [K]
Crystal 1	1.9627	–
Crystal 2	3.4321	350.73

Conditions	Triple point temperature [K]	molar heat capacity	vapor or sublimation pressure [kPa]
[2], 5 K, Crystal 2	–	0.22 J/K/mol	–
[2], 5.533 K, Crystal 2	–	0.3 J/K/mol	–
[2], 6.588 K, Crystal 2	–	0.58 J/K/mol	–
[2], 7.503 K, Crystal 2	–	0.948 J/K/mol	–
[2], 8.461 K, Crystal 2	–	1.45 J/K/mol	–
[2], 9.448 K, Crystal 2	–	2.15 J/K/mol	–
[2], 10 K, Crystal 2	–	2.66 J/K/mol	–
[2], 10.47 K, Crystal 2	–	3.13 J/K/mol	–
[2], 11.6 K, Crystal 2	–	4.28 J/K/mol	–
[2], 12.86 K, Crystal 2	–	5.92 J/K/mol	–
[2], 14.25 K, Crystal 2	–	7.97 J/K/mol	–
[2], 15.79 K, Crystal 2	–	10.43 J/K/mol	–
[2], 17.5 K, Crystal 2	–	13.43 J/K/mol	–
[2], 19.42 K, Crystal 2	–	16.89 J/K/mol	–
[2], 20 K, Crystal 2	–	17.93 J/K/mol	–
[2], 21.58 K, Crystal 2	–	20.82 J/K/mol	–
[2], 24 K, Crystal 2	–	25.18 J/K/mol	–
[2], 26.71 K, Crystal 2	–	29.9 J/K/mol	–
[2], 29.7 K, Crystal 2	–	34.78 J/K/mol	–
[2], 30 K, Crystal 2	–	35.25 J/K/mol	–
[2], 33.02 K, Crystal 2	–	39.81 J/K/mol	–
[2], 36.72 K, Crystal 2	–	44.96 J/K/mol	–
[2], 40 K, Crystal 2	–	49.12 J/K/mol	–
[2], 40.81 K, Crystal 2	–	50.11 J/K/mol	–
[2], 45.31 K, Crystal 2	–	55.45 J/K/mol	–
[2], 50 K, Crystal 2	–	60.83 J/K/mol	–
[2], 50.28 K, Crystal 2	–	61.18 J/K/mol	–
[2], 53.35 K, Crystal 2	–	64.41 J/K/mol	–
[2], 55.8 K, Crystal 2	–	67 J/K/mol	–
[2], 58.24 K, Crystal 2	–	69.81 J/K/mol	–
[2], 60 K, Crystal 2	–	71.59 J/K/mol	–
[2], 63.85 K, Crystal 2	–	75.62 J/K/mol	–
[2], 70 K, Crystal 2	–	82.39 J/K/mol	–
[2], 70.16 K, Crystal 2	–	82.56 J/K/mol	–
[2], 77.05 K, Crystal 2	–	90.04 J/K/mol	–
[2], 80 K, Crystal 2	–	93.26 J/K/mol	–
[2], 84.6 K, Crystal 2	–	98.29 J/K/mol	–
[2], 87.33 K, Crystal 2	–	101.34 J/K/mol	–
[2], 90 K, Crystal 2	–	104.26 J/K/mol	–
[2], 92.81 K, Crystal 2	–	107.36 J/K/mol	–
[2], 95.36 K, Crystal 2	–	110.2 J/K/mol	–
[2], 100 K, Crystal 2	–	115.33 J/K/mol	–
[2], 101.84 K, Crystal 2	–	117.33 J/K/mol	–
[2], 104.42 K, Crystal 2	–	120.11 J/K/mol	–
[2], 113.87 K, Crystal 2	–	130.45 J/K/mol	–
[2], 120 K, Crystal 2	–	137.01 J/K/mol	–
[2], 124.55 K, Crystal 2	–	141.81 J/K/mol	–
[2], 136.29 K, Crystal 2	–	154.01 J/K/mol	–
[2], 140 K, Crystal 2	–	157.79 J/K/mol	–
[2], 148.14 K, Crystal 2	–	166.03 J/K/mol	–
[2], 160 K, Crystal 2	–	177.95 J/K/mol	–
[2], 160.18 K, Crystal 2	–	178.15 J/K/mol	–
[2], 172.27 K, Crystal 2	–	190.18 J/K/mol	–
[2], 180 K, Crystal 2	–	197.9 J/K/mol	–
[2], 184.35 K, Crystal 2	–	202.24 J/K/mol	–
[2], 196.47 K, Crystal 2	–	214.21 J/K/mol	–
[2], 200 K, Crystal 2	–	217.74 J/K/mol	–
[2], 208.62 K, Crystal 2	–	226.43 J/K/mol	–
[2], 220 K, Crystal 2	–	238.04 J/K/mol	–
[2], 220.76 K, Crystal 2	–	238.82 J/K/mol	–
[2], 232.87 K, Crystal 2	–	251.39 J/K/mol	–
[2], 240 K, Crystal 2	–	258.93 J/K/mol	–
[2], 246.43 K, Crystal 2	–	265.79 J/K/mol	–
[2], 260 K, Crystal 2	–	280.44 J/K/mol	–
[2], 261.46 K, Crystal 2	–	282.02 J/K/mol	–
[2], 276.43 K, Crystal 2	–	298.62 J/K/mol	–
[2], 280 K, Crystal 2	–	302.57 J/K/mol	–
[2], 284.66 K, Crystal 2	–	307.57 J/K/mol	–
[2], 291.28 K, Crystal 2	–	315.23 J/K/mol	–
[2], 293.84 K, Crystal 2	–	318.28 J/K/mol	–
[2], 298.15 K, Crystal 2	–	323.15 J/K/mol	–
[2], 298.15 K, Liquid	–	347.84 J/K/mol	–
[2], 300 K, Crystal 2	–	325.26 J/K/mol	–
[2], 300 K, Liquid	–	349.41 J/K/mol	–
[2], 302.67 K, Crystal 2	–	328.3 J/K/mol	–
[2], 304.12 K, Crystal 2	–	330 J/K/mol	–
[2], 305.99 K, Crystal 2	–	332.26 J/K/mol	–
[2], 310 K, Liquid	–	357.8 J/K/mol	–
[2], 315.02 K, Crystal 2	–	342.89 J/K/mol	–
[2], 320 K, Crystal 2	–	348.63 J/K/mol	–
[2], 320 K, Liquid	–	366 J/K/mol	–
[2], 327.23 K, Crystal 2	–	357.27 J/K/mol	–
[2], 330 K, Liquid	–	374.03 J/K/mol	–
[2], 339.27 K, Crystal 2	–	372.29 J/K/mol	–
[2], 340 K, Crystal 2	–	373.15 J/K/mol	–
[2], 340 K, Liquid	–	381.92 J/K/mol	–
[2], 340.54 K, Crystal 2	–	373.89 J/K/mol	–
[2], 350 K, Liquid	–	389.72 J/K/mol	–
[2], 350.73 K, Crystal 1	–	375.72 J/K/mol	–
[2], 350.73 K, Crystal 2	–	386.83 J/K/mol	–
[2], 350.78 K, Crystal 1	–	375.79 J/K/mol	–
[2], 350.78 K, Liquid	–	390.31 J/K/mol	–
[2], 354.93 K, Liquid	–	393.57 J/K/mol	–
[2], 356.83 K, Liquid	–	395.01 J/K/mol	–
[2], 358.46 K, Liquid	–	396.37 J/K/mol	–
[2], 358.5 K, Liquid	–	396.23 J/K/mol and 396.2 J/K/mol	–
[2], 360 K, Liquid	–	397.37 J/K/mol	–
[2], 363.7 K, Liquid	–	400.3 J/K/mol	–
[2], 366.52 K, Liquid	–	402.21 J/K/mol	–
[2], 374.01 K, Liquid	–	407.95 J/K/mol	–
[2], 380 K, Liquid	–	412.36 J/K/mol	–
[2], 380.16 K, Liquid	–	412.53 J/K/mol	–
[2], 395.48 K, Liquid	–	423.8 J/K/mol	–
[2], 398.2 K, Liquid	–	425.82 J/K/mol	–
[2], 400 K, Liquid	–	427.09 J/K/mol	–
[2], 416.83 K, Liquid	–	439.37 J/K/mol	–
[2], 417.39 K, Liquid	–	439.74 J/K/mol	–
[2], 420 K, Liquid	–	441.61 J/K/mol	–
[2], 433.85 K, Liquid	–	451.62 J/K/mol	–
[2], 435.24 K, Liquid	–	452.59 J/K/mol	–
[2], 440 K, Liquid	–	456.08 J/K/mol	–
[3], 319.99 K, Crystal 2	–	–	0.0214
[3], 329.99 K, Crystal 2	–	–	0.0543
[3], 339.98 K, Crystal 2	–	–	0.1315
[3], 349.98 K, Crystal 2	–	–	0.2996
[3], 354.98 K, Liquid	–	–	0.4031
[3], 359.98 K, Liquid	–	–	0.5294
[3], 369.98 K, Liquid	–	–	0.8897
[3], 379.97 K, Liquid	–	–	1.445
[3], 387.02 K, Liquid	–	–	1.996
[3], 389.97 K, Liquid	–	–	2.276
[3], 394.97 K, Liquid	–	–	2.825
[3], Crystal, Adiabatic calorimetry	350.78	–	–
